Laboratory results reported in patent US11730743B2, “Protection of cells from degeneration and treatment of geographic atrophy” (University of Kentucky Research Foundation, priority 2012, dated 2023).

Test system: wild-type mice
Test: Alu RNA- or pAlu-induced RPE degeneration after subretinal injection (fundus photographs, ZO-1 flat mounts)
Assay type: in vivo
Conditions: subretinal Alu RNA, test agent intravitreous
Method: Subretinal injection and imaging. Subretinal injections (1 μL) in mice were performed using a Pico-Injector (PLI-100, Harvard Apparatus). In vivo transfection of plasmids was achieved using 10% Neuroporter (Genlantis). Fundus imaging was performed on a TRC-50 IX camera (Topcon) linked to a digital imaging system (Sony). Immunolabeling of RPE flat mounts was performed using antibodies against human zonula occludens-1 (Invitrogen).
Fundus photography. Retinal photographs of dilated mouse eyes were taken with a TRC-50 IX camera (Topcon) linked to a digital imaging system (Sony).
Immunolabeling. Human eyes fixed in 2-4% paraformaldehyde were prepared as eyecups, cryoprotected in 30% sucrose, embedded in optimal cutting temperature compound (Tissue-Tek OCT; Sakura Finetek), and cryosectioned into 10 μm sections. Depigmentation was achieved using 0.25% potassium permanganate and 0.1% oxalic acid. Immunohistochemical staining was performed with the rabbit antibody against NLRP3 (1:100, Sigma Aldrich) or rabbit antibody against Caspase-1 (prediluted, AbCam). Isotype IgG was substituted for the primary antibody to assess the specificity of the staining. Bound antibody was detected with biotin-conjugated secondary antibodies, followed by incubation with ABC reagent and visualized by Vector Blue (Vector Laboratories). Levamisole (Vector Laboratories) was used to block endogenous alkaline phosphatase activity. Slides were washed in PBS, counterstained with neutral red (Fisher Scientific), rinsed with deionized water, air dried, and then mounted in Vectamount (Vector Laboratories). Fluorescent labeling of human tissue was performed with the rabbit antibody against PYCARD (1:50, Clone N-15, Santa Cruz Biotechnology). Immunolabeling was visualized by fluorescently conjugated anti-rabbit secondary antibody (Invitrogen). Tissue autofluorescence was quenched by incubating the sections in 0.3% Sudan black (Fisher Scientific). Sections were mounted in Vectashield with DAPI (Vector Laboratories). Mouse RPE/choroid flat mounts were fixed with 4% paraformaldehyde or 100% methanol, stained with rabbit antibodies against human zonula occludens-1 (1:100, Invitrogen) and visualized with Alexa594 (Invitrogen). All images were obtained using the Leica SP-5 or Zeiss Axio Observer Z1 microscopes.
Subretinal injection. Subretinal injections (1 μL) in mice were performed using a Pico-Injector (PLI-100, Harvard Apparatus). In vivo transfection of plasmids coding for two different Alu sequences (pAlu) or empty control vector (pNull) (Bennett et al., 2008; Kaneko et al., 2011; Shaikh et al., 1997) was achieved using 10% Neuroporter (Genlantis). AAV1-BEST1-Cre (Alexander and Hauswirth, 2008) or AAV1-BEST1-GFP were injected at […] pfu/mL and in vitro transcribed Alu RNA was injected at 0.3 mg/mL.
Drug treatments. siRNAs formulated in siRNA buffer (20 mM KCL, 0.2 mM MgCl2 in HEPES buffer at pH 7.5; Dharmacon) or phosphate buffered saline (PBS; Sigma-Aldrich); the TLR4 antagonist Ultra Pure Rhodobacter sphaeroides LPS (LPS-RS, InvivoGen), a peptide inhibitor of MyD88 homodimerization IMG-2005 (IMGENEX), control inhibitor (IMGENEX), recombinant IL-18 (Medical & Biological Laboratories), neutralizing rat antibodies against mouse IL-1β (IMGENEX), neutralizing rat antibodies against mouse IL-18 (Medical & Biological Laboratories), isotype control IgGs (R&D Systems or eBioscience as appropriate), Caspase-1 inhibitor Z-WEHD-FMK (R&D Systems), Caspase-3 inhibitor Z-DEVD-FMK (R&D Systems), Caspase control inhibitor Z-FA-FMK (R&D Systems), (2R,4R)-APDC (Enzo Life Sciences), Glipizide (Sigma-Aldrich), Glyburide (Sigma-Aldrich), and P2X7 receptor antagonist A438079 (Tocris Bioscience) were dissolved in phosphate buffered saline (PBS; Sigma-Aldrich) or dimethyl sulfoxide (DMSO; Sigma-Aldrich), and injected into the vitreous humor in a total volume of 1 μL with a 33-gauge Exmire microsyringe (Ito Corporation). […]

MyD88 inhibitory peptide: peptide inhibitor of MyD88 homodimerization IMG-2005 (IMGENEX)
Alu RNA-induced RPE degeneration: prevented
